Assay results: patent publication US20110039763A1, “TARGETED ANTIMICROBIAL MOIETIES” (C3 JIAN, INC., priority 2009, published 2011)
Ends that are not written are not given here.

Assays:
[1] = system: microorganisms; experiment: Peptide activities: targeting/binding, antimicrobial, growth or phenotype altering (Tables 7, 8); type: cell-based; parameters: key: B: targeting/binding activity;; M: antimicrobial activity;; G: Growth or phenotype altering; conditions: peptides having multiple activities
Excerpt: In certain embodiments, peptides described herein can have multiple activities. Thus for example, a peptide can have both binding/targeting activity and antimicrobial activity. Such peptides can be used, e.g., in a chimeric construct, for any or all of these properties. Thus, for example, a peptide designated “B” in Table 8 can be used as a targeting peptide. If it is also designated G or M it can also be used for antimicrobial activity.
Table 8. Peptides Having Multiple Activities. B: Targeting/Binding Activity; M: Antimicrobial Activity; G: GROWTH or Phenotype Altering.

[2] = system: microorganisms; experiment: Morphology, biofilm and growth disrupting peptides (Table 5); type: cell-based; parameters: key: A: Peptide aggregates; B: Less hyphal formation; Clumps; Diffuse clumps and small polyps; F: Diffuse growth; H: Thin; I: Growth inhibition; Microcolony formation; Rippled; Small polyps; Thick; W: Halo formation on top, microlonies on bottom
Excerpt: In certain embodiments peptides that induce alterations in phenotype or other biological activities can also be used as antimicrobial effector moieties.

| Substance | Activities [1] | Organism, effect ([2]; E. faecalis) | Organism, effect ([2]; MRSA) | Organism, effect ([2]; S. epidermidis) | Organism, effect ([2]; S. pneumoniae) | Organism, effect ([2]; E. coli) | also measured |
| --- | --- | --- | --- | --- | --- | --- | --- |
| PF-418: peptide having multiple activities (chain 1 FFLVHFYIRKRKGKVSIFLNYF; chain 2 FFLVHFYIRKRKGKVSIFLNYF; Peptide with targeting and/or antimicrobial activity) | G B | – | – | – | – | – | Organism, effect: C. jejuni ([2]; C. jejuni): C. jejuni (D); Organism, effect: E. coli ([2]; E. coli): E. coli (C); Organism, effect: E. faecalis ([2]; E. faecalis): E. faecalis (D); Organism, effect: MRSA ([2]; MRSA): MRSA (D); Organism, effect: S. epidermidis ([2]; S. epidermidis): S. epidermidis (M); Organism, effect: S. pneumoniae ([2]; S. pneumoniae): S. pneumoniae (D) |
| PF-431: peptide having multiple activities (chain 1 VAYAAICWW; chain 2 VAYAAICWW; Peptide with targeting and/or antimicrobial activity) | G B | E. faecalis (R) | MRSA (C) | S. epidermidis (M) | S. pneumoniae (R) | – | Organism, effect ([2]; C. jejuni): C. jejuni (R) |
| PF-432: peptide having multiple activities (chain 1 FNGDSEFFLCIAF; chain 2 FNGDSEFFLCIAF; Peptide with targeting and/or antimicrobial activity) | G B | E. faecalis (D) | MRSA (M) | S. epidermidis (M) | S. pneumoniae (D) | E. coli (R) | Organism, effect ([2]; C. jejuni): C. jejuni (D); Organism, effect ([2]; P. aeruginosa): P. aeruginosa (A) |
| PF-439: peptide having multiple activities (chain 1 RVLVLKKFHGIMDGNRNVAVFFVGQ; chain 2 RVLVLKKFHGIMDGNRNVAVFFVGQ; Peptide with targeting and/or antimicrobial activity) | G B | E. faecalis (C) | MRSA (M) | S. epidermidis (C) | S. pneumoniae (R) | E. coli (R) | – |
| PF-440: peptide having multiple activities (MFIISPDLFNIAVILYILFFIHDILLLILS; Peptide with targeting and/or antimicrobial activity) | G B | E. faecalis (C) | MRSA (C) | S. epidermidis (C) | S. pneumoniae (R) | E. coli (R) | – |
| PF-443: peptide having multiple activities (KLLYFFNYFENLQQVHLLVQL; Peptide with targeting and/or antimicrobial activity) | G B | – | MRSA (C) | – | S. pneumoniae (C) | E. coli (R) | – |
| PF-450: peptide having multiple activities (HRNLIILQRTIFI; Peptide with targeting and/or antimicrobial activity) | G B | E. faecalis (C) | MRSA (C) | – | S. pneumoniae (C) | – | – |
| PF-451: peptide having multiple activities (MVNYIIGSYMLYREQNNNEALRKFDITLAM; Peptide with targeting and/or antimicrobial activity) | G B | E. faecalis (C) | MRSA (C) | S. epidermidis (C) | S. pneumoniae (C) | E. coli (R) | – |
| PF-454: peptide having multiple activities (MSVFVPVTNIFMFIMSPIFNVNLLHFKVYI; Peptide with targeting and/or antimicrobial activity) | G B | E. faecalis (C) | MRSA (C) | S. epidermidis (C) | S. pneumoniae (R) | E. coli (R) | Organism, effect ([2]; P. aeruginosa): P. aeruginosa (H) |
| PF-458: peptide having multiple activities (ISLIIFIMLFVVALFKCITNYKHQS; Peptide with targeting and/or antimicrobial activity) | G B | – | MRSA (M) | – | S. pneumoniae (M) | – | Organism, effect ([2]; P. aeruginosa): P. aeruginosa (H) |
| PF-460: peptide having multiple activities (MEHVLPFQNTPPNIVIIYKDFTHLKSITFS; Peptide with targeting and/or antimicrobial activity) | G B | E. faecalis (C) | MRSA (C) | S. epidermidis (C) | S. pneumoniae (R) | E. coli (H) | – |
| PF-465: peptide having multiple activities (KPVGKALEEIADGKIEPVVPKEYLG; Peptide with targeting and/or antimicrobial activity) | G B | – | – | – | S. pneumoniae (H) | – | – |
| PF-469: peptide having multiple activities (YKVNYNNIDNHFNTLRH; Peptide with targeting and/or antimicrobial activity) | G B | E. faecalis (D) | MRSA (D) | S. epidermidis (D) | S. pneumoniae (D) | E. coli (C) | Organism, effect ([2]; C. jejuni): C. jejuni (D) |
| PF-474: peptide having multiple activities (MHRNLVLVKMEPIPHIMIIANQIGIIIEKA; Peptide with targeting and/or antimicrobial activity) | G B | E. faecalis (C) | MRSA (D) | S. epidermidis (C) | S. pneumoniae (D) | E. coli (C) | Organism, effect ([2]; C. albicans): C. albicans (B); Organism, effect ([2]; C. jejuni): C. jejuni (D); Organism, effect ([2]; P. aeruginosa): P. aeruginosa (A) |
| PF-478: peptide having multiple activities (HLFILKSHLKPFPPFRYTYD; Peptide with targeting and/or antimicrobial activity) | G B | – | MRSA (H) | S. epidermidis (C) | S. pneumoniae (C) | E. coli (C) | – |
| PF-479: peptide having multiple activities (AYILKRREEKNK; Peptide with targeting and/or antimicrobial activity) | G B | – | – | – | S. pneumoniae (C) | – | – |
| PF-482: peptide having multiple activities (LVGYVRTSGTVRSYKIN; Peptide with targeting and/or antimicrobial activity) | G B | – | – | – | S. pneumoniae (S) | – | – |
| PF-516: peptide having multiple activities (ASKQASKQASKQASKQ; Peptide with targeting and/or antimicrobial activity) | G | – | – | – | S. pneumoniae (H) | – | – |
| PF-526: peptide having multiple activities (VLLLFIFQPFQKQLL-NH2) | G B | – | MRSA (C) | S. epidermidis (C) | S. pneumoniae (R) | E. coli (R) | Organism, effect ([2]; C. albicans): C. albicans (C) |
| PF-537: peptide having multiple activities (LANDYYKKTKKSW; Peptide with targeting and/or antimicrobial activity) | G B | – | – | – | S. pneumoniae (C) | – | – |
| PF-539: peptide having multiple activities (SIILTKKKRRKIPLSIDSQIYKYTFKQ; Peptide with targeting and/or antimicrobial activity) | G B | – | MRSA (H) | – | S. pneumoniae (A) | – | – |
| PF-543: peptide having multiple activities (NILFGIIGFVVAMTAAVIVTAISIAK; Peptide with targeting and/or antimicrobial activity) | G B | – | MRSA (D) | S. epidermidis (D) | S. pneumoniae (D) | E. coli (C) | Organism, effect ([2]; M. luteus): M. luteus (C); Organism, effect ([2]; S. mutans): S. mutans (S) |
| PF-544: peptide having multiple activities (FGEKQMRSWWKVHWFHP; Peptide with targeting and/or antimicrobial activity) | G B | E. faecalis (R) | MRSA (D) | S. epidermidis (D) | S. pneumoniae (M) | – | – |
| PF-548: peptide having multiple activities (ARPIADLIHFNSTTVTASGDVYYGPG; Peptide with targeting and/or antimicrobial activity) | G B | – | MRSA (M) | S. epidermidis (M) | S. pneumoniae (D) | – | Organism, effect ([2]; B. subtilis): B. subtilis (C); Organism, effect ([2]; C. jeikeium): C. jeikeium (R); Organism, effect ([2]; C. jejuni): C. jejuni (D); Organism, effect ([2]; M. luteus): M. luteus (A) |
